Laboratory results as given in ChEMBL document CHEMBL4043155, “Development of helix-stabilized antimicrobial peptides composed of lysine and hydrophobic α,α-disubstituted α-amino acid residues” (2017).
≈ marks a conversion by molar mass, not a printed value. Where a SMILES comes first, the peptide text is derived from it. [ ]: non-standard residue; d: D form. Ac6c = NC1(C(=O)O)CCCCC1; Ac5c = NC1(C(=O)O)CCCC1

How the values were obtained:
Type in all cases: functional
Escherichia coli = experiment: Antimicrobial activity against Escherichia coli NBRC 3972 after 16 hrs by microbroth dilution method; conditions: NBRC 3972, 16 h
Staphylococcus aureus = experiment: Antimicrobial activity against Staphylococcus aureus NBRC 13276 after 16 hrs by microbroth dilution method; conditions: NBRC 13276, 16 h
Pseudomonas aeruginosa = experiment: Antimicrobial activity against Pseudomonas aeruginosa NBRC 13275 after 16 hrs by microbroth dilution method; conditions: NBRC 13275, 16 h

Row | Molecule | MIC (Escherichia coli) [µM] | MIC (Staphylococcus aureus) [µM] | MIC (Pseudomonas aeruginosa) [µM]
1 | CC(=O)N[C@H](CCCCN)C(=O)N[C@H](CCCCN)C(=O)NC(C)(C)C(=O)N[C@H](CCCCN)C(=O)N[C@H](CCCCN)C(=O)NC(C)(C)C(=O)N[C@H](CCCCN)C(=O)N[C@H](CCCCN)C(=O)NC(C)(C)C(N)=O | > 800 | > 800 | > 800
2 | CC(=O)N[C@@H](CCCCN)C(=O)N[C@H](CCCCN)C(=O)NC(C)(C)C(=O)N[C@@H](CCCCN)C(=O)N[C@H](CCCCN)C(=O)NC(C)(C)C(=O)N[C@@H](CCCCN)C(=O)N[C@H](CCCCN)C(=O)NC(C)(C)C(N)=O | > 800 | > 800 | > 800
3 | CC(=O)N[C@@H](CCCCN)C(=O)N[C@@H](CCCCN)C(=O)NC(C)(C)C(=O)N[C@@H](CCCCN)C(=O)N[C@@H](CCCCN)C(=O)NC(C)(C)C(=O)N[C@@H](CCCCN)C(=O)N[C@@H](CCCCN)C(=O)NC(C)(C)C(N)=O | 400 (≈ 433 µg/mL) | > 800 | > 800
4 | CC(=O)NC(CCCCN)C(=O)NC(CCCCN)C(=O)NC(C)(C)C(=O)NC(CCCCN)C(=O)NC(CCCCN)C(=O)NC(C)(C)C(=O)NC(CCCCN)C(=O)NC(CCCCN)C(=O)NC(C)(C)C(N)=O (racemic) | > 800 | > 800 | > 800
5 | Ac-KKAKKAKKA-NH2 | > 800 | > 800 | > 800
6 | Ac-KKGKKGKKG-NH2 | > 800 | > 800 | > 800

Molecules with a lower MIC (Escherichia coli), results first:

Row | MIC (Escherichia coli) [µM] | MIC (Staphylococcus aureus) [µM] | MIC (Pseudomonas aeruginosa) [µM] | Molecule
7 | 50 (≈ 58.1 µg/mL) | > 800 | 400 (≈ 465 µg/mL) | CC(=O)N[C@@H](CCCCN)C(=O)N[C@@H](CCCCN)C(=O)NC1(C(=O)N[C@@H](CCCCN)C(=O)N[C@@H](CCCCN)C(=O)NC2(C(=O)N[C@@H](CCCCN)C(=O)N[C@@H](CCCCN)C(=O)NC3(C(N)=O)CCCC3)CCCC2)CCCC1 (Ac-KK[Ac5c]KK[Ac5c]KK[Ac5c]-NH2)
8 | 25 (≈ 30.1 µg/mL) | > 800 | 50 (≈ 60.2 µg/mL) | CC(=O)N[C@@H](CCCCN)C(=O)N[C@@H](CCCCN)C(=O)NC1(C(=O)N[C@@H](CCCCN)C(=O)N[C@@H](CCCCN)C(=O)NC2(C(=O)N[C@@H](CCCCN)C(=O)N[C@@H](CCCCN)C(=O)NC3(C(N)=O)CCCCC3)CCCCC2)CCCCC1 (Ac-KK[Ac6c]KK[Ac6c]KK[Ac6c]-NH2)
9 | 50 | 200 | 12.5 | Ac-GIGKFLHSAKKFGKAFVGEIMNS-NH2
